Reference: patent publication US20260028354A1, “TETRAHYDRONAPHTHALENE DERIVATIVES AS ESTROGEN RECEPTOR DEGRADERS” (REGENT OF THE UNIVERSITY OF MICHIGAN, priority 2022, published 2026)
Like-named read-outs stand apart in the source and are kept apart here.

Columns and labels:
ER = ER (Homo sapiens (Human), UniProt P03372); test: In-cell western blot analysis of ER for "B" compounds; assay type: cell-based; settings: 16 hours, read-out: ICW DC50
How it was run: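 In-cell western: fixed cells stained with primary antibodies (2 h, RT), then anti-rabbit-680 and anti-mouse-800 secondaries (1:1000, 1 h, RT), imaged on a LI-COR plate reader. Relative ER level in treated wells expressed against untreated and DMSO-treated wells set as 100%.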

[1] = Cell growth assay (WST-8) for "B" compounds; assay type: cell-based; settings: T47D, read-out: Cell growth Inhibition in T47D cell line IC50
How it was run: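 Cells seeded at 1500/well overnight, then exposed to compounds for 4 days. 10% WST-8 added for 2.5 h at 37 °C and absorbance read at 450 nm. Growth given as absorbance relative to vehicle control, from three repeats.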

Chain of ER (P03372 whole entry): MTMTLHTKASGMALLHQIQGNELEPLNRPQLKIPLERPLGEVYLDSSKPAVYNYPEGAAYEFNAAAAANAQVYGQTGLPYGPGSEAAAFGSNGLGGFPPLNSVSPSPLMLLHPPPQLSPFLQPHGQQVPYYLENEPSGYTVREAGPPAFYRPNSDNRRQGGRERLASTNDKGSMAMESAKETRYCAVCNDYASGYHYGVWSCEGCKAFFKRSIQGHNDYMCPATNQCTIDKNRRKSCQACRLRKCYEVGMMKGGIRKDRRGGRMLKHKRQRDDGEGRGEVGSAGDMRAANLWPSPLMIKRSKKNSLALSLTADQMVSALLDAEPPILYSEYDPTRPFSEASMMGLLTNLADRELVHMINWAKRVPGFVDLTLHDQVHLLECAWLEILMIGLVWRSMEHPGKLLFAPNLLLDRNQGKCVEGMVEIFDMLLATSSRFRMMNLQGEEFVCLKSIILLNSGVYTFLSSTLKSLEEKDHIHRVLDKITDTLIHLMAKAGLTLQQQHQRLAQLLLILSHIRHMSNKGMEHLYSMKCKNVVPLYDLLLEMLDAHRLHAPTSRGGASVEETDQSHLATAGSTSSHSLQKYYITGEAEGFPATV

SMILES: O=C1CCC(N2Cc3cc4c(cc3C2=O)OC[C@@H]2CN(CC3CC5(CCN(c6ccc([C@@H]7c8ccc(O)cc8CC[C@@H]7c7ccccc7)cc6)CC5)C3)CCN42)C(=O)N1 (stereo partly drawn) [Compound B211, 3-((S)-3-((7-(4-((1R,2S)-6-hydroxy-2-phenyl-1,2,3,4-tetrahydronaphthalen-1-yl)phenyl)-7-azaspiro[3.5]nonan-2-yl)methyl)-8-oxo-1,2,3,4,4a,5,8,10-octahydro-9H-pyrazino[1′,2′:4,5][1,4]oxazino[2,3-f]isoindol-9-yl)piperidine-2,6-dione]
- DC50 (ER): < 10 nM
- IC50 ([1]; T47D cell line): 1 to 10 nM

SMILES: O=C1CCC(N2Cc3c(ccc4c3OCC43CCN(CC(=O)OC4CCN(c5ccc([C@@H]6c7ccc(O)cc7CC[C@@H]6c6ccccc6)cc5)CC4)CC3)C2=O)C(=O)N1 (stereo partly drawn) [Compound B343, 1-(4-((1R,2S)-6-hydroxy-2-phenyl-1,2,3,4-tetrahydronaphthalen-1-yl)phenyl)piperidin-4-yl 2-(7-((S)-2,6-dioxopiperidin-3-yl)-6-oxo-7,8-dihydro-2H,6H-spiro[furo[2,3-c]isoindolc-3,4′-piperidin]-1′-yl)acetate]
- DC50 (ER): > 100 nM
- IC50 [1]: 1 to 10 nM

SMILES: O=C1CCC(N2Cc3cc4c(cc3C2=O)OC[C@@H]2CN(C(=O)[C@H]3CC[C@@H](CN5CC(Nc6ccc([C@@H]7c8ccc(O)cc8CC[C@@H]7c7ccccc7)cc6)C5)CC3)CCN42)C(=O)N1 (stereo partly drawn) [Compound B140, 3-((S)-3-((1R,4S)-4-((3-((4-((1R,2S)-6-hydroxy-2-phenyl-1,2,3,4-tetrahydronaphthalen-1-yl)phenyl)amino)azetidin-1-yl)methyl)cyclohexane-1-carbonyl)-8-oxo-1,2,3,4,4a,5,8,10-octahydro-9H-pyrazino[1′,2′:4,5][1,4]oxazino[2,3-f]isoindol-9-yl)piperidine-2,6-dione]
- DC50 (ER): < 10 nM
- IC50 ([1]; T47D cell line): < 1 nM

SMILES: O=C1CCC(N2Cc3cc4c(cc3C2=O)OC[C@@H]2CN(C(=O)CN3CC(Nc5ccc([C@@H]6c7ccc(O)cc7CC[C@@H]6c6ccccc6)cc5)C3)CCN42)C(=O)N1 (stereo partly drawn) [Compound B204, 3-((S)-3-(2-(3-((4-((1R,2S)-6-hydroxy-2-phenyl-1,2,3,4-tetrahydronaphthalen-1-yl)phenyl)amino)azetidin-1-yl)acetyl)-8-oxo-1,2,3,4,4a,5,8,10-octahydro-9H-pyrazino[1′,2′:4,5][1,4]oxazino[2,3-f]isoindol-9-yl)piperidine-2,6-dione]
- DC50 (ER): < 10 nM
- IC50 ([1]; T47D cell line): < 1 nM

SMILES: O=C1CCC(N2Cc3cc4c(cc3C2=O)OC[C@@H]2CN(CC3CCC5(C3)CN(c3ccc([C@@H]6c7ccc(O)cc7CC[C@@H]6c6ccccc6)cc3)C5)CCN42)C(=O)N1 (stereo partly drawn) [Compound B358, 3-((4aS)-3-((2-(4-((1R,2S)-6-hydroxy-2-phenyl-1,2,3,4-tetrahydronaphthalen-1-yl)phenyl)-2-azaspiro[3.4]octan-6-yl)methyl)-8-oxo-1,2,3,4,4a,5,8,10-octahydro-9H-pyrazino[1′,2′:4,5][1,4]oxazino[2,3-f]isoindol-9-yl)piperidine-2,6-dione]
- DC50 (ER): 10 to 100 nM
- IC50 ([1]; T47D cell line): > 10 nM

SMILES: O=C1CCC(N2Cc3cc4c(cc3C2=O)OC[C@@H]2CN(C(=O)CN3CCC5(CC3)CCN(c3ncc([C@@H]6c7ccc(O)cc7CC[C@@H]6c6ccccc6)cn3)CC5)CCN42)C(=O)N1 (stereo partly drawn) [Compound B159, 3-((S)-3-(2-(9-(5-((1S,2S)-6-hydroxy-2-phenyl-1,2,3,4-tetrahydronaphthalen-1-yl)pyrimidin-2-yl)-3,9-diazaspiro[5.5]undecan-3-yl)acetyl)-8-oxo-1,2,3,4,4a,5,8,10-octahydro-9H-pyrazino[1′,2′:4,5][1,4]oxazino[2,3-f]isoindol-9-yl)piperidine-2,6-dione]
- DC50 (ER): 10 to 100 nM
- IC50 ([1]; T47D cell line): 1 to 10 nM

SMILES: O=C1CCC(N2Cc3c(ccc4c3OCC43CCN(CC4CCC5(CCN(c6ccc([C@@H]7c8ccc(O)cc8CC[C@@H]7c7ccccc7)cc6)CC5)C4)CC3)C2=O)C(=O)N1 (stereo partly drawn) [Compound B364, 3-(1′-((8-(4-((1R,2S)-6-hydroxy-2-phenyl-1,2,3,4-tetrahydronaphthalen-1-yl)phenyl)-8-azaspiro[4.5]decan-2-yl)methyl)-6-oxo-6,8-dihydro-2H,7H-spiro[furo[2,3-e]isoindole-3,4′-piperidin]-7-yl)piperidine-2,6-dione]
- DC50 (ER): > 100 nM
- IC50 [1]: 1 to 10 nM

SMILES: O=C1CC[C@H](N2Cc3c(ccc4c3OCC43CCN(C[C@H]4CCC5(CCN(c6ccc([C@@H]7c8ccc(O)cc8CC[C@@H]7c7ccccc7)cc6)CC5)OC4)CC3)C2=O)C(=O)N1 [Compound B401, (S)-3-(1′-(((R)-9-(4-((1R,2S)-6-hydroxy-2-phenyl-1,2,3,4-tetrahydronaphthalen-1-yl)phenyl)-1-oxa-9-azaspiro[5.5]undecan-3-yl)methyl)-6-oxo-6,8-dihydro-2H,7H-spiro[furo[2,3-e]isoindole-3,4′-piperidin]-7-yl)piperidine-2,6-dione]
- DC50 (ER): < 10 nM
- IC50 [1]: < 1 nM

SMILES: O=C1CCC(N2Cc3c(ccc4c3OC[C@H]3CN(CC5COC6(C5)CN(c5ccc([C@@H]7c8ccc(O)cc8CC[C@@H]7c7ccccc7)cc5)C6)CCN43)C2=O)C(=O)N1 (stereo partly drawn) [Compound B230, 3-((5aR)-7-((2-(4-((1R,2S)-6-hydroxy-2-phenyl-1,2,3,4-tetrahydronaphthalen-1-yl)phenyl)-5-oxa-2-azaspiro[3.4]octan-7-yl)methyl)-1-oxo-1,3,5,5a,6,7,8,9-octahydro-2H-pyrazino[1′,2′:4,5][1,4]oxazino[2,3-e]isoindol-2-yl)piperidine-2,6-dione]
- DC50 (ER): < 10 nM
- IC50 ([1]; T47D cell line): < 1 nM

SMILES: O=C1CCC(N2Cc3cc4c(cc3C2=O)OC[C@@H]2CN(CC(=O)N3CCC5(CC3)CCN(c3ncc([C@@H]6c7ccc(O)cc7CC[C@@H]6c6ccccc6)cn3)CC5)CCN42)C(=O)N1 (mixture of isomers) [Compound B149, 3-((S)-3-(2-(9-(5-(cis-6-hydroxy-2-phenyl-1,2,3,4-tetrahydronaphthalen-1-yl)pyrimidin-2-yl)-3,9-diazaspiro[5.5]undecan-3-yl)-2-oxoethyl)-8-oxo-1,2,3,4,4a,5,8,10-octahydro-9H-pyrazino[1′,2′: 4,5][1,4]oxazino[2,3-f]isoindol-9-yl)piperidine-2,6-dione]
- DC50 (ER): 10 to 100 nM
- IC50 [1]: < 1 nM

SMILES: O=C1CCC(N2Cc3cc4c(cc3C2=O)OC[C@@H]2CN(CC3CCC5(CCN(c6ccc([C@@H]7c8ccc(O)cc8CC[C@@H]7c7ccccc7)cc6)CC5)C3)CCN42)C(=O)N1 (stereo partly drawn) [Compound B363, 3-((4aS)-3-((8-(4-((1R,2S)-6-hydroxy-2-phenyl-1,2,3,4-tetrahydronaphthalen-1-yl)phenyl)-8-azaspiro[4.5]decan-2-yl)methyl)-8-oxo-1,2,3,4,4a,5,8,10-octahydro-9H-pyrazino[1′,2′:4,5][1,4]oxazino[2,3-f]isoindol-9-yl)piperidine-2,6-dione]
- DC50 (ER): 10 to 100 nM
- IC50 ([1]; T47D cell line): > 10 nM

SMILES: O=C1CCC(N2C(=O)c3cc4c(cc3C2=O)CN(CC2COC3(CCN(c5ccc([C@@H]6c7ccc(O)cc7CC[C@@H]6c6ccccc6)cc5)CC3)OC2)C4)C(=O)N1 (stereo partly drawn) [Compound B338, 2-(2,6-dioxopiperidin-3-yl)-6-((9-(4-((1R,2S)-6-hydroxy-2-phenyl-1,2,3,4-tetrahydronaphthalen-1-yl)phenyl)-1,5-dioxa-9-azaspiro[5.5]undecan-3-yl)methyl)-6,7-dihydropyrrolo[3,4-f]isoindole-1,3(2H,5H)-dione]
- DC50 (ER): 10 to 100 nM
- IC50 ([1]; T47D cell line): 1 to 10 nM
